Reference: paper PMC3407934, “Functional Expression in Escherichia coli of the Disulfide-Rich Sea Anemone Peptide APETx2, a Potent Blocker of Acid-Sensing Ion Channel 3” (Marine Drugs, 2012)
“Also recorded” adds a separate entry of the source. Like-named read-outs stand apart in the source and are kept apart here. Positions of bridges follow the written chain, without caps; N, C: chain ends. No end group written: not given here.

What was measured:
rat ASIC3 = biological target: T1, rat ASIC3 (Rattus norvegicus, UniProt O35240); assay: Inhibition of homomeric rat ASIC3 currents in Xenopus oocytes (two-electrode voltage clamp); assay type: cell-based; conditions: rat ASIC3 in Xenopus laevis oocytes; pH drop from 7.4 to 6.0 every minute; -60 mV; RT (18–21 °C); ND96 with 0.1% BSA; pH 6 stimulus buffered with MES
T1 construct: expressed in transfected cells; host or cells: Xenopus laevis oocytes (cRNA injection)
T1 sequence (O35240 1-533): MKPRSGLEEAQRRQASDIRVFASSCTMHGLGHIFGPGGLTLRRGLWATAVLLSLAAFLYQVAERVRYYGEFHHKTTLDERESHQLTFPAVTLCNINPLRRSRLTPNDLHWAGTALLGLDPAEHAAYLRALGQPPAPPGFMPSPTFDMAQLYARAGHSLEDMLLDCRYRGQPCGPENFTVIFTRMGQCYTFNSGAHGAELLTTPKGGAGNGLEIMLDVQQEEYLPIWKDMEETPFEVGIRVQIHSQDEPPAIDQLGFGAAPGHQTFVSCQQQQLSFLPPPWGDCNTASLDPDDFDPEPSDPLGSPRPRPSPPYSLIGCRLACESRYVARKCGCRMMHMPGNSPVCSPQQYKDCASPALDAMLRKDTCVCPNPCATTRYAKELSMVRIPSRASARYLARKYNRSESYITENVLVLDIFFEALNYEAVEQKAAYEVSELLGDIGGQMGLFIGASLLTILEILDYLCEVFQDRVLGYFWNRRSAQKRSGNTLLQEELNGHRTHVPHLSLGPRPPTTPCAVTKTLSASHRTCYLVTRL
Description: The efficacy of rAPETx2 was tested on rat ASIC3 expressed in Xenopus laevis oocytes.
Figure 4 (A) Representative current traces comparing the concentration-dependent inhibition of rat ASIC3 (expressed in Xenopus oocytes) by synthetic (s) and recombinant (r) APETx2. (B) Concentration-effect curves for sAPETx2 and an rAPETx2–F15A mutant.
Oocytes were obtained from Xenopus laevis and defolliculatd by treatment with collagenase (Sigma type I). Rat ASIC3 cRNA was synthesised using an mMessage mMachine cRNA transcription kit and healthy stage V–VI oocytes injected with 4 ng rat ASIC3 cRNA (40 nL of 100 ng/μL). Oocytes were kept at 17 °C in ND96 solution (96 mM NaCl, 2 mM KCl, 1 mM CaCl2, 2 mM MgCl2, 5 mM HEPES, 5 mM pyruvic acid, 50 µg/mL gentamicin, 2.5% fetal horse serum, pH 7.4). Membrane currents were recorded 2–6 days post cRNA injection under voltage-clamp (Axoclamp 900A amplifier, Molecular Devices, Sunnyvale, CA, USA) using two standard glass microelectrodes with resistances of 0.5–1 MΩ when filled with 3 M KCl solution. Data acquisition and analysis were performed using pCLAMP software (Version 10, Molecular Devices, Sunnyvale, CA, USA). Oocytes were clamped at −60 mV with data sampled at 1000 Hz and filtered at […]. All experiments were performed at RT (18–21 °C) in ND96 solution containing 0.1% fatty acid free-bovine serum albumin (BSA). […]

ASIC3 = conditions: cited from earlier work; for potency and specificity of ASIC3 inhibition (in words): statement on the majority of currently known inhibitors of ASIC3
Description: Acid-sensing ion channels (ASICs) are proton-gated sodium channels present in the central and peripheral nervous system of chordates. ASIC3 is highly expressed in sensory neurons and plays an important role in inflammatory and ischemic pain. Thus, specific inhibitors of ASIC3 have the potential to be developed as novel analgesics. […] However, the mechanism of action of APETx2 and the molecular basis for its interaction with ASIC3 is not known. In order to assis ... || The pharmacology of ASIC3 is still relatively poorly understood when compared with voltage-gated sodium (NaV) and calcium (CaV) channels. Thus, the characterization of, and development of structure-activity relationships for, selective ASIC3 modulators will be useful for characterizing the function of ASIC3 under both normal and pathophysiological conditions.

[1] = system: ASIC3-containing channels (ASIC3, ASIC3/1a, ASIC3/1b, ASIC3/2b); conditions: cited from earlier work
Description: (§1) The pharmacology of ASIC3 is still relatively poorly understood when compared with voltage-gated sodium (NaV) and calcium (CaV) channels. Thus, the characterization of, and development of structure-activity relationships for, selective ASIC3 modulators will be useful for characterizing the function of ASIC3 under both normal and pathophysiological conditions. […] The majority of currently known inhibitors of ASIC3 (e.g., gadolinium, a ...

rodent pain models = conditions: cited from earlier work
Description: as §1

NaV1.8 = conditions: cited from earlier work
Description: The pharmacology of ASIC3 is still relatively poorly understood when compared with voltage-gated sodium (NaV) and calcium (CaV) channels. Thus, the characterization of, and development of structure-activity relationships for, selective ASIC3 modulators will be useful for characterizing the function of ASIC3 under both normal and pathophysiological conditions.

[2] = system: acid-induced and post-operative pain in rats; set-up: method as in PMID 18923424, PMID 21508231, PMID 20860671; conditions: cited from earlier work

“GTACSCGNSKGIYWFYRPSCPTDRGYTGSCRYFLGTCCTPAD (disulfide 4-37, 6-30, 20-38) [rAPETx2]” gave an IC50 (rat ASIC3) of 80 nM.

For `N=C(N)NC(=O)c1nc(Cl)c(N)nc1N` [amiloride], the “potency and specificity of ASIC3 inhibition (in words)” value (ASIC3) is listed as “neither potent nor specific”.

In the case of APETx2, the “potency and selectivity for ASIC3 (in words)” value (ASIC3; ASIC3 / ASIC3-containing channels) is given as “most potent and selective inhibitor of ASIC3-containing channels; also recorded: only known potent and selective inhibitor of ASIC3; also recorded: specific peptide blocker of ASIC3”, the IC50 ([1]; homomeric ASIC3, read-out: IC50 for homomeric ASIC3) is given as roughly 60 nM and the IC50 ([1]; upper end of range, depending on the subunit composition of the channel, read-out: IC50 for ASIC3-containing channels (upper end)) is given as no more than 2000 nM. The “analgesic effect in rodent pain models (in words)” value (rodent pain models) was “analgesic in rodent pain models”, the “inhibition of NaV1.8 (in words)” value (NaV1.8) was “inhibits NaV 1.8” and the “potency on NaV1.8 relative to ASIC3 (in words)” value (NaV1.8; compared with ASIC3) was “lower potency than for ASIC3”. For the same compound, the “effect on acid-induced and post-operative pain (in words)” value [2] was “abolish acid-induced and post-operative pain in rats”.

For `Cc1nc(NC(=N)N)nc2ccccc12` [GMQ, 2-guanidine-4-methylquinazoline], the “ASIC3 agonism (in words)” value (ASIC3; normal pH) is given as “persistent activation at normal pH”.

For `[Gd]` [gadolinium], the “potency and specificity of ASIC3 inhibition (in words)” value (ASIC3) is listed as “neither potent nor specific”.
